Data: patent publication US7618975B2, “4-arylamino-quinazolines and analogs as activators of caspases and inducers of apoptosis and the use thereof” (Myriad Pharmaceuticals, Inc., priority 2003, dated 2009)

Each compound was assayed on T-47D cells (assay: Caspase cascade activation (N-(Ac-DEVD)-N′-ethoxycarbonyl-R110 fluorogenic substrate) in T-47D cells). Settings: T-47D, 24 hr; ratio of net RFU to control.
Format: cell-based, Human
Throughout, for Caspase activity Ratio T-47D (24 hr): test concentration or dose not given here.
Throughout, for Caspase activity Ratio T-47D (48 hr): test concentration or dose not given here.

Row | Compound | Caspase activity Ratio T-47D (24 hr)
1 | COc1ccc(N(C)c2nc(C(=O)O)nc3ccccc23)cc1 [Example 118, 4-(N-(4-Methoxy-phenyl)-N-methylamino)quinazoline-2-carboxylic Acid] | 1.0
2 | COc1ccc(N(c2nc(Cl)nc3ccccc23)C(C)C)cc1 [Example 37, (2-Chloro-quinazolin-4-yl)-isopropyl-(4-methoxy-phenyl)-amine] | 3.3
3 | COc1ccc(N(C)c2nc(N)nc3ccccc23)cn1 [Example 49, N^4-(6-methoxypyridin-3-yl)-N^4-methyl-quinazoline-2,4-diamine] | 7.5
4 | CN(c1nc(Cl)nc2ccccc12)[C@H]1CC[C@H](C)CC1 [Example 133, (2-Chloro-quinazolin-4-yl)-(trans-4-methylcyclohexyl)-methyl-amine] | 1.2
5 | COc1cc(OC)c(Nc2nc(C)nc3ccccc23)c(OC)c1 [Example 82, (2-Methyl-quinazolin-4-yl)-(2,4,6-trimethoxy-phenyl)-amine] | 1.0
6 | COc1ccc(N(C)c2nc(N=[N+]=[N-])nc3ccccc23)cc1 [Example 121, (2-Azido-quinazolin-4-yl)-(4-methoxy-phenyl)-methyl-amine] | 8.8
7 | CNc1nc(N(C)c2ccc(OC)cc2)c2ccccc2n1 [Example 123, (2-Methylamino-quinazolin-4-yl)-(4-methoxy-phenyl)-methyl-amine] | 8.2
8 | COc1ccc(N(C)c2nc(N(C)C)nc3ccccc23)cc1 [Example 122, (2-Dimethylamino-quinazolin-4-yl)-(4-methoxy-phenyl)-methyl-amine] | 8.2
9 | Cc1nc(Nc2ccc(OC(C)C)cc2)c2ccccc2n1 [Example 80, (4-Isopropoxy-phenyl)-(2-methyl-quinazolin-4-yl)-amine] | 8.3
10 | COc1ccc(N(C)c2nc(C)nc3cc(N=[N+]=[N-])ccc23)cc1 [Example 114, (7-Azido-2-methyl-quinazolin-4-yl)-(4-methoxy-phenyl)-methyl-amine] | 7.2
11 | COc1c(Br)cc(N(C)c2nc(C)nc3ccc([N+](=O)[O-])cc23)cc1Br [Example 115, (3,5-Dibromo-4-methoxy-phenyl)-(2-methyl-6-nitro-quinazolin-4-yl)-methyl-amine] | 1.0
12 | Cc1nc(N(C)c2ccc(F)cc2)c2ccccc2n1 [Example 124, (4-Fluoro-phenyl)-(2-methyl-quinazolin-4-yl)-methyl-amine] | 5.2
13 | COc1ccc(N(C)c2nc(Cl)nc3cccc(Cl)c23)cc1 [Example 90, (2,5-Dichloro-quinazolin-4-yl)-(4-methoxy-phenyl)-methyl-amine] | 10.6
14 | Cc1nc(N(C)c2ccc(O)cc2)c2ccccc2n1 [Example 93, (4-Hydroxy-phenyl)-(2-methyl-quinazolin-4-yl)-methyl-amine] | 11.3
15 | COc1ccc(N(C)c2nc(NCCN3CCOCC3)nc3ccccc23)cc1 [Example 14, N^4-(4-Methoxy-phenyl)-N^4-methyl-N^2-(2-morpholin-4-yl-ethyl)-quinazoline-2,4-diamine] | 9.7
16 | COc1ccc(Nc2nc(C)nc3ccccc23)c(F)c1 [Example 96, (2-Fluoro-4-methoxy-phenyl)-(2-methyl-quinazolin-4-yl)-amine] | 1.0
17 | COc1ccc(N(C)c2nc(N3CCOCC3)nc3ccccc23)cc1 [Example 15] | 5.7
18 | COc1ccc(N(c2nc(Cl)nc3ccccc23)C2CCCCC2)cc1 [Example 38, (2-Chloro-quinazolin-4-yl)-cyclohexyl-(4-methoxy-phenyl)-amine] | 3.4
19 | COc1ccc(N(C)c2nc(C)nc3ccc(N)cc23)cc1 [Example 110, (6-Amino-2-methyl-quinazolin-4-yl)-(4-methoxy-phenyl)-methyl-amine] | 8.8
20 | Cc1nc(N(C)c2ccc(N(C)C)cc2)c2ccccc2n1 [Example 105, (4-Dimethylamino-phenyl)-(2-methyl-quinazolin-4-yl)-methyl-amine] | 8.5
21 | Cc1ccc(Nc2nc(Cl)nc3ccccc23)cc1 [Example 8, (2-Chloro-quinazolin-4-yl)-(4-methyl-phenyl)-amine] | 1.0
22 | CCOc1ccc(Nc2nc(C)nc3ccccc23)cc1 [Example 106, (4-Ethoxy-phenyl)-(2-methyl-quinazolin-4-yl)-amine] | 1.1
23 | COc1ccc(N(C)c2nc(C)nc3ccc(N=[N+]=[N-])cc23)cc1 [Example 111, (6-Azido-2-methyl-quinazolin-4-yl)-(4-methoxy-phenyl)-methyl-amine] | 9.4
24 | COc1ccc(Nc2nc(C)nc3ccccc23)cn1 [Example 95, (2-Methyl-quinazolin-4-yl)-(6-methoxy-pyridin-3-yl)-amine] | 1.0
25 | Cc1nc(Nc2ccncc2)c2ccccc2n1 [Example 135, (2-Methyl-quinazolin-4-yl)-(pyridin-4-yl)-amine] | 1.2
26 | COc1ccc(Nc2nc(Cl)nc3cc(OC)c(OC)cc23)cc1 [Example 21, (2-Chloro-6,7-dimethoxyquinazolin-4-yl)-(4-methoxy-phenyl)-amine] | 1.0
27 | COc1ccc(N(C)c2nc(NCCc3c[nH]cn3)nc3ccccc23)cc1 [Example 46, N^2-[2-(1H-Imidazol-4-yl)-ethyl]-N^4-(4-methoxy-phenyl)-N^4-methyl-quinazoline-2,4-diamine] | 12.8
28 | CN(c1ccc(Cl)cc1)c1nc(Cl)nc2ccccc12 [Example 3, (2-Chloro-quinazolin-4-yl)-(4-chloro-phenyl)-methyl-amine] | 8.1

Same assay, conditions: T-47D, 48 hr; benzohydrazide analogs table

Row | Compound | Ratio T-47D (48 hr)
29 | CSc1nc(N(C)NC(=O)c2ccc(F)cc2)c2ccccc2n1 [4-fluoro-N′-methyl-N′-(2-(methylthio)quinazolin-4-yl)benzohydrazide] | 13.8
30 | CSc1nc(N(C)NC(=O)c2cccc(C)c2)c2ccccc2n1 [N′,3-dimethyl-N′-(2-(methylthio)quinazolin-4-yl)benzohydrazide] | 12.7
31 | CSc1nc(N(C)NC(=O)c2ccc(Cl)cc2)c2ccccc2n1 [4-chloro-N′-methyl-N′-(2-(methylthio)quinazolin-4-yl)benzohydrazide] | 14.4
32 | COc1ccc(C(=O)NN(C)c2nc(C(F)(F)F)nc3ccccc23)cc1 [N′-(2-(trifluoromethyl)quinazolin-4-yl)-4-methoxy-N′-methylbenzohydrazide] | 13.1

Same assay, conditions: T-47D, 48 hr; ratio of net RFU to control

Row | Compound | Caspase activity Ratio T-47D (48 hr)
33 | CCOc1ccc(N(C)c2nc(Cl)nc3ccccc23)cc1 [Example 97, (2-Chloro-quinazolin-4-yl)-(4-ethoxy-phenyl)-methylamine] | 9.0
34 | Clc1nc(Nc2ccncc2)c2ccccc2n1 [Example 27, (2-Chloro-quinazolin-4-yl)-pyridin-4-yl-amine] | 1.0
35 | COc1ccc(Nc2nc(Cl)nc3ccccc23)c(OC)c1 [Example 30, (2-Chloro-quinazolin-4-yl)-(2,4-dimethoxy-phenyl)-amine] | 1.0
36 | COc1ccc(N(C)c2nc(N(C)c3ccc(OC)cc3)c3cc(Cl)ccc3n2)cc1 [Example 61, 6-Chloro-N^2N^4-bis-(4-methoxy-phenyl)-N^2,N^4-dimethyl-quinazoline-2,4-diamine] | 9.2
37 | COc1ccc(N(C)c2nc(Cl)nc3c(C)cccc23)cc1 [Example 59, (2-Chloro-8-methyl-quinazolin-4-yl)-(4-methoxy-phenyl)-methyl-amine] | 7.1
38 | CCOc1ccc(Nc2nc(Cl)nc3ccccc23)cc1 [Example 94, (2-Chloro-quinazolin-4-yl)-(4-ethoxy-phenyl)-amine] | 1.0
39 | COc1ccc(N(C)c2nc(N)nc3ccccc23)cn1 [Example 49, N^4-(6-methoxypyridin-3-yl)-N^4-methyl-quinazoline-2,4-diamine] | 13.4
40 | COc1ccc(N(C)c2nc(OC(C)C)nc3cccc(Cl)c23)cc1 [Example 64, (5-Chloro-2-isopropoxy-quinazolin-4-yl)-(4-methoxy-phenyl)-methyl-amine] | 1
41 | COc1ccc(Oc2ncnc3ccccc23)cc1 [Example 71, 4-(4-Methoxy-phenoxy)-quinazoline] | 6.9
42 | COC(=O)c1ccc(N(C)c2nc(Cl)nc3ccccc23)cc1 [Example 52, (2-Chloro-quinazolin-4-yl)-(4-methylcarboxyphenyl)-methyl-amine] | 10.8
43 | COc1ccc(N(C)c2nc(NO)nc3ccccc23)cc1 [Example 10, N^2-Hydroxyl-N^4-(4-methoxy-phenyl)-N^4-methyl-quinazoline-2,4-diamine] | 12.8
44 | CN(c1ccc(Oc2ccccc2)cc1)c1nc(Cl)nc2ccccc12 [Example 69, (2-Chloro-quinazolin-4-yl)-(4-phenoxy-phenyl)-methyl-amine] | 1
45 | COc1ccc2c(ccn2-c2nc(Cl)nc3ccccc23)c1 [Example 9, 2-Chloro-4-(5-methoxyindol-1-yl)quinazoline] | 1.8
46 | COc1ccc(N(C)c2nc(NCCN3CCOCC3)nc3ccccc23)cc1 [Example 14, N^4-(4-Methoxy-phenyl)-N^4-methyl-N^2-(2-morpholin-4-yl-ethyl)-quinazoline-2,4-diamine] | 12.3
47 | COc1ccc(N(C)c2nc(N3CCOCC3)nc3ccccc23)cc1 [Example 15] | 11.5
48 | CN(c1ccc(O)cc1)c1nc(Cl)nc2ccccc12 [Example 54, (2-Chloro-quinazolin-4-yl)-(4-hydroxyphenyl)-methylamine] | 12.5
49 | COc1ccc(N(c2nc(Cl)nc3ccccc23)C2CCCC2)cc1 [Example 45, (2-Chloro-quinazolin-4-yl)-cyclopentyl-(4-methoxy-phenyl)-amine] | 1.0
50 | COc1ccc(N(C)c2nc(NCCCN(C)C)nc3ccccc23)cc1 [Example 47, N^2-(3-Dimethylamino-propyl)-N^4-(4-methoxy-phenyl)-N^4-methyl-quinazoline-2,4-diamine] | 11.5
51 | COc1ccc(Nc2nc(Cl)nc3cc(OC)c(OC)cc23)cc1 [Example 21, (2-Chloro-6,7-dimethoxyquinazolin-4-yl)-(4-methoxy-phenyl)-amine] | 1.0
52 | COc1ccc(N(C)c2nc(NCCc3c[nH]cn3)nc3ccccc23)cc1 [Example 46, N^2-[2-(1H-Imidazol-4-yl)-ethyl]-N^4-(4-methoxy-phenyl)-N^4-methyl-quinazoline-2,4-diamine] | 9.4
